Measurements taken from ChEMBL document CHEMBL5614409, “Discovery of potent HIV-1 NNRTIs by CuAAC click-chemistry-based miniaturized synthesis, rapid screening and structure optimization” (Eur J Med Chem, 2024).

Legend:
[1] = target: Human immunodeficiency virus type 1 reverse transcriptase (Human immunodeficiency virus 1) (UniProt Q72547); experiment: Inhibition of HIV-1 reverse transcriptase incubated for 2 hrs in presence of template and viral nucleotides by ELISA relative to control; design: concentration or dose not given beside the values; details: concentration not given here
[2] = tested on: Human immunodeficiency virus 1; experiment: Antiviral activity against HIV1 IIIB harboring F227L/V106A double mutant infected in MT4 cells assessed as reduction in virus induced cytopathic effect incubated for 5 days by MTT method; assay type: functional, organism-based; details: Human immunodeficiency virus 1, IIIB, MT4, 120 h
[3] = tested on: Human immunodeficiency virus 1; experiment: Antiviral activity against HIV1 IIIB harboring Y188L mutant infected in MT4 cells assessed as reduction in virus induced cytopathic effect incubated for 5 days by MTT method; assay type: functional, organism-based; details: Human immunodeficiency virus 1, IIIB, MT4, 120 h
[4] = tested on: Human immunodeficiency virus 1; experiment: Antiviral activity against HIV1 IIIB harboring L100I mutant infected in MT4 cells assessed as reduction in virus induced cytopathic effect incubated for 5 days by MTT method; assay type: functional, organism-based; details: Human immunodeficiency virus 1, IIIB, MT4, 120 h
[5] = tested on: Human immunodeficiency virus 1; experiment: Antiviral activity against HIV1 IIIB harboring RES056 mutant infected in MT4 cells assessed as reduction in virus induced cytopathic effect incubated for 5 days by MTT method; assay type: functional, organism-based; details: Human immunodeficiency virus 1, IIIB, MT4, 120 h
[6] = Cytotoxicity against human MT4 cells assessed as reduction in cell viability incubated for 5 days by MTT method; assay type: toxicity, cell-based; details: time 5 day
[7] = tested on: Human immunodeficiency virus 1; experiment: Antiviral activity against HIV1 IIIB harboring Y181C mutant infected in MT4 cells assessed as reduction in virus induced cytopathic effect incubated for 5 days by MTT method; assay type: functional, organism-based; details: Human immunodeficiency virus 1, IIIB, MT4, 120 h
[8] = tested on: Human immunodeficiency virus 1; experiment: Antiviral activity against HIV1 IIIB harboring E138K mutant infected in MT4 cells assessed as reduction in virus induced cytopathic effect incubated for 5 days by MTT method; assay type: functional, organism-based; details: Human immunodeficiency virus 1, IIIB, MT4, 120 h
[9] = tested on: Human immunodeficiency virus 1; experiment: Antiviral activity against HIV1 IIIB infected in MT4 cells assessed as reduction in virus induced cytopathic effect incubated for 5 days by MTT method; assay type: functional, organism-based; details: Human immunodeficiency virus 1, IIIB, MT4, 120 h
[10] = tested on: Human immunodeficiency virus 1; experiment: Antiviral activity against HIV1 IIIB harboring K103 N mutant infected in MT4 cells assessed as reduction in virus induced cytopathic effect incubated for 5 days by MTT method; assay type: functional, organism-based; details: Human immunodeficiency virus 1, IIIB, MT4, 120 h
[11] = Selectivity index, ratio of CC50 for human MT4 cells to EC50 for antiviral activity against HIV1 IIIB infected in MT4 cells; assay type: toxicity, cell-based; details: read-out: Ratio CC50/EC50

| SMILES | inhibition [1] | EC50 [2] | EC50 [3] | EC50 [4] | EC50 [5] | CC50 at 120 h [6] | EC50 [7] | EC50 [8] | EC50 [9] | EC50 [10] | selectivity ratio [11] |
| --- | --- | --- | --- | --- | --- | --- | --- | --- | --- | --- | --- |
| Cc1cc(C#N)cc(C)c1Oc1ccnc(NC2CCN(Cc3cn(Cc4ccc(S(N)(=O)=O)cc4)nn3)CC2)n1 | 89.3% |  |  |  |  |  |  |  |  |  |  |
| Cc1cc(/C=C/C#N)cc(C)c1Oc1nc(NC2CCN(Cc3cn(CC(N)=O)nn3)CC2)nc2c1COC2 |  | 268 nM | 419 nM | 37 nM | 2460 nM | 125000 nM | 57 nM | 31 nM | 13 nM | 32 nM | 9570 |
| Cc1cc(C#N)cc(C)c1Oc1ccnc(NC2CCN(Cc3cn(Cc4ccc(B(O)O)cc4)nn3)CC2)n1 | 89.8% |  |  |  |  |  |  |  |  |  |  |
| CCNC(=O)Cn1cc(CN2CCC(Nc3nc4c(c(Oc5c(C)cc(/C=C/C#N)cc5C)n3)COC4)CC2)nn1 |  | 259 nM | 175 nM | 13 nM | 512 nM | 120000 nM | 20 nM | 22 nM | 4 nM | 6 nM | 33200 |
| O=C1Nc2ccc(Cl)cc2[C@@](C#CC2CC2)(C(F)(F)F)O1 [EFAVIRENZ] |  |  |  |  |  | > 6350 nM |  |  |  |  |  |
| Cc1ccnc2c1NC(=O)c1cccnc1N2C1CC1 [NEVIRAPINE] |  |  |  |  | > 15000 nM | > 15000 nM |  |  | 151 nM |  |  |
| Cc1cc(C#N)cc(C)c1Oc1ccnc(NC2CCN(Cc3cn(CC(=O)Nc4ccc(S(C)(=O)=O)cc4)nn3)CC2)n1 | 93.8% | 2880 nM | 260 nM | 228 nM | 3410 nM | 12200 nM | 34 nM | 31 nM | 5 nM | 16 nM | 2690 |
| Cc1cc(/C=C/C#N)cc(C)c1Oc1nc(NC2CCN(Cc3cn(CC(=O)NC4CCOCC4)nn3)CC2)nc2ccsc12 |  | 107 nM | 40 nM | 9 nM | 101 nM | 15600 nM | 19 nM | 20 nM | 5 nM | 4 nM | 3060 |
| CNC(=O)Cn1cc(CN2CCC(Nc3nc4c(c(Oc5c(C)cc(/C=C/C#N)cc5C)n3)COC4)CC2)nn1 |  | 945 nM | 179 nM | 17 nM | 805 nM | 119000 nM | 28 nM | 17 nM | 4 nM | 8 nM | 31300 |
| Cc1cc(C#N)cc(C)c1Oc1ccnc(NCCc2cn(Cc3ccc(Cl)cc3)nn2)n1 | 51.3% |  |  |  |  |  |  |  |  |  |  |
| Cc1cc(/C=C/C#N)cc(C)c1Oc1ccnc(NC2CCN(Cc3cn(CC(=O)NC4CCOCC4)nn3)CC2)n1 |  | 232 nM | 522 nM | 19 nM | 190 nM | 19200 nM | 22 nM | 34 nM | 4 nM | 5 nM | 4560 |
| Cc1cc(/C=C/C#N)cc(C)c1Oc1nc(NC2CCN(Cc3cn(CC(=O)NC4CC4)nn3)CC2)nc2ccccc12 |  | 546 nM | 58 nM | 19 nM | 232 nM | 22400 nM | 41 nM | 29 nM | 5 nM | 9 nM | 4150 |
| Cc1cc(/C=C/C#N)cc(C)c1Oc1nc(NC2CCN(Cc3cn(CC(N)=O)nn3)CC2)nc2ccccc12 |  | 499 nM | 81 nM | 17 nM | 187 nM | 18100 nM | 33 nM | 23 nM | 6 nM | 8 nM | 3300 |
| Cc1ccccc1Cn1cc(CCNc2nccc(Oc3c(C)cc(C#N)cc3C)n2)nn1 | 55% |  |  |  |  |  |  |  |  |  |  |
| Cc1cc(/C=C/C#N)cc(C)c1Oc1nc(NC2CCN(Cc3cn(CC(=O)NC4CC4)nn3)CC2)nc2ccsc12 |  | 159 nM | 88 nM | 17 nM | 191 nM | 18200 nM | 23 nM | 26 nM | 6 nM |  | 2940 |
